What was measured:
Tryptase = Tryptase (Homo sapiens, UniProt Q9BZJ3+Q15661+Q9NRR2); assay: Inhibitory activity was measured against human mast cell tryptase.; type: protein assay
Neutrophil elastase = molecular target: T1, Neutrophil elastase (Homo sapiens, UniProt P08246); assay: Inhibitory activity was measured against human leukocyte elastase.
T1 sequence (P08246 whole entry): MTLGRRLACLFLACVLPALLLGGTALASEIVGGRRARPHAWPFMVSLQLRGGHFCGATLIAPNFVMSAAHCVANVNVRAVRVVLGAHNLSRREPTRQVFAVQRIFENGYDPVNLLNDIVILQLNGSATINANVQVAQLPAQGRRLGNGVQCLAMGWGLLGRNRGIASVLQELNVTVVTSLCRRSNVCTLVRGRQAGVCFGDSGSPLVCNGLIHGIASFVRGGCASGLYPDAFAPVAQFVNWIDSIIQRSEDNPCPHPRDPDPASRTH

Prothrombin = Prothrombin (Homo sapiens, UniProt P00734); assay: Inhibitory activity was measured against thrombin.
Plasminogen = Plasminogen (Homo sapiens, UniProt P00747); assay: Inhibitory activity was measured against plasmin.
Coagulation factor X = Coagulation factor X (Homo sapiens, UniProt P00742); assay: Inhibitory activity was measured against Coagulation factor X
[1] = molecular target: Urokinase-type plasminogen activator (Homo sapiens, UniProt P00749); assay: Inhibitory activity was measured against urokinase.

Sequence of Plasminogen (P00747 97-580 limits assumed): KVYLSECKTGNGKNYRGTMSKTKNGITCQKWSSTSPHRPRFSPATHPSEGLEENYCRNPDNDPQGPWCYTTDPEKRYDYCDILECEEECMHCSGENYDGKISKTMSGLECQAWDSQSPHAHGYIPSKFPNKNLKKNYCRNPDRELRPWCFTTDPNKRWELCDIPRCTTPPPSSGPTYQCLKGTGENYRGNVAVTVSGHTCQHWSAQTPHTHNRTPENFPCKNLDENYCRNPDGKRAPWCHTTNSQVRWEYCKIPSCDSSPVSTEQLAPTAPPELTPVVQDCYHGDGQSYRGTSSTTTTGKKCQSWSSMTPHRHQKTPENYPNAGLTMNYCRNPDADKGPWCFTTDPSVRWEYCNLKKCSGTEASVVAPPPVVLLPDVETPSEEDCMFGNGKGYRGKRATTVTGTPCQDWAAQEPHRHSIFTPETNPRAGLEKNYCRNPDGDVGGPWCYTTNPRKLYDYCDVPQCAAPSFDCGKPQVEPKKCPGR
Sequence of Plasminogen (P00747 581-810 limits assumed): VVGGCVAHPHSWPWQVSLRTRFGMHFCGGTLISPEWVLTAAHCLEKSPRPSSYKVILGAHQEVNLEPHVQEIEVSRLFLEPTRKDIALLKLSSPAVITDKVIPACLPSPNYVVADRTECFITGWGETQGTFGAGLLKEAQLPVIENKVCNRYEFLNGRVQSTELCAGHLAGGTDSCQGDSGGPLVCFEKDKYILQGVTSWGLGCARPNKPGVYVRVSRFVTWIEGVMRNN
Sequence of Coagulation factor X (P00742 41-179 limits assumed): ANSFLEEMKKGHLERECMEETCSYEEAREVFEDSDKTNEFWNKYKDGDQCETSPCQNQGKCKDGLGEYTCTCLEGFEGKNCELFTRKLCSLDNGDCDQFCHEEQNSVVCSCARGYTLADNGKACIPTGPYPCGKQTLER
Sequence of Coagulation factor X (P00742 235-488 limits assumed): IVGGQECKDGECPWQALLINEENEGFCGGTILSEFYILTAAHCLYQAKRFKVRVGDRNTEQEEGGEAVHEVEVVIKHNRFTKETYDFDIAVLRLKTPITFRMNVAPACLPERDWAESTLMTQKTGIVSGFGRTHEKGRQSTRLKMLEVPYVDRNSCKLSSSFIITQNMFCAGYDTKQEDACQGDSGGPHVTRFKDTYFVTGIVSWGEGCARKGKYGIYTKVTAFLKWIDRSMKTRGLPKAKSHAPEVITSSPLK

SMILES: CC(C)(C)OC(=O)NCCCCCC(=O)OCN1C(=O)c2ccccc2S1(=O)=O
- IC50 (Tryptase): 5.37 µM

SMILES: O=C(CCNC(=O)OCc1ccccc1)NCCC(=O)OCN1C(=O)c2ccccc2S1(=O)=O
- IC50 (Tryptase): > 33 µM

SMILES: CC(C)(C)OC(=O)N[C@@H](CCCCNC(=O)OCc1ccccc1)C(=O)OCN1C(=O)c2ccccc2S1(=O)=O
- IC50 (Tryptase): 0.352 µM

SMILES: O=C(NCc1ccc(C(=O)OCN2C(=O)c3ccccc3S2(=O)=O)cc1)OCc1ccccc1
- IC50 (Tryptase): 0.352 µM

SMILES: O=C(CCCCCNC(=O)OCc1ccccc1)OCN1C(=O)c2ccccc2S1(=O)=O
- IC50 (Tryptase): 0.436 µM

SMILES: O=C(Cc1ccccc1)NCc1ccc(C(=O)OCN2C(=O)c3ccccc3S2(=O)=O)cc1
- IC50 (Tryptase): 0.132 µM

SMILES: O=C(CCCNC(=O)OCc1ccccc1)OCN1C(=O)c2ccccc2S1(=O)=O
- IC50 (Tryptase): 0.349 µM

SMILES: CC(C)(C)OC(=O)N[C@H](CCCCNC(=O)OCc1ccccc1)C(=O)OCN1C(=O)c2ccccc2S1(=O)=O
- IC50 (Tryptase): 12.2 µM

SMILES: O=C(Nc1ccc(C(=O)OCN2C(=O)c3ccccc3S2(=O)=O)cc1)OCc1ccccc1
- IC50 (Neutrophil elastase): 2660 nM
- IC50 (Tryptase): 0.0643 µM
- IC50 (Prothrombin): > 33 µM

SMILES: O=C(NCc1ccc(C(=O)OCN2C(=O)c3ccccc3S2(=O)=O)cc1)Nc1ccccc1
- IC50 (Tryptase): 0.157 µM

SMILES: O=C(CNC(=O)OCc1ccccc1)OCN1C(=O)c2ccccc2S1(=O)=O
- IC50 (Tryptase): 6.94 µM

SMILES: O=C(Nc1cccc(C(=O)OCN2C(=O)c3ccccc3S2(=O)=O)c1)OCc1ccccc1
- IC50 (Tryptase): > 33 µM

SMILES: O=C(NCc1ccc(C(=O)OCN2C(=O)c3ccccc3S2(=O)=O)cc1)Oc1ccccc1
- IC50 (Tryptase): 0.63 µM

SMILES: O=C(CCNC(=O)OCc1ccccc1)OCN1C(=O)c2ccccc2S1(=O)=O
- IC50 (Plasminogen): > 33 µM
- IC50 (Coagulation factor X): > 33 µM
- IC50 (Neutrophil elastase): 2260 nM
- IC50 (Tryptase): 0.854 µM
- IC50 [1]: > 33 µM
- IC50 (Prothrombin): > 33 µM

SMILES: O=C(NCCc1ccccc1)c1ccc(C(=O)OCN2C(=O)c3ccccc3S2(=O)=O)cc1
- IC50 (Tryptase): 0.679 µM

SMILES: O=C(CCCCNC(=O)OCc1ccccc1)OCN1C(=O)c2ccccc2S1(=O)=O
- IC50 (Plasminogen): 33 µM
- IC50 (Coagulation factor X): > 33 µM
- IC50 (Neutrophil elastase): 1440 nM
- IC50 (Tryptase): 0.11 µM
- IC50 [1]: > 33 µM
- IC50 (Prothrombin): > 33 µM

SMILES: O=C(OCN1C(=O)c2ccccc2S1(=O)=O)c1ccc(OCCOc2ccccc2)cc1
- IC50 (Tryptase): > 33 µM

SMILES: O=C(CCc1ccccc1)Nc1ccc(C(=O)OCN2C(=O)c3ccccc3S2(=O)=O)cc1
- IC50 (Tryptase): 0.17 µM

SMILES: O=C(NCc1ccccc1)Nc1ccc(C(=O)OCN2C(=O)c3ccccc3S2(=O)=O)cc1
- IC50 (Tryptase): 0.95 µM

SMILES: Nc1ccc(C(=O)OCN2C(=O)c3ccccc3S2(=O)=O)cc1
- IC50 (Tryptase): > 33 µM
